According to the supplement of paper PMC5908809:

Key:
[1] = tested on: normal primary NK cells, pool 1 (3 donors), resting (IL-2 0 ng/mL); experiment: drug sensitivity score (DSS) (DSS units); higher = more sensitive; extreme values may be limits of the assay; conditions: 72 h
IMC-1 (IL-2 20 ng/mL) [2] = experiment: as above; conditions: 72 h
YT (IL-2 2.5 ng/mL) [3] = experiment: as above; conditions: 72 h
[4] = tested on: normal primary NK cells, pool 3 (3 donors) (IL-2 2.5 ng/mL); experiment: as above; conditions: 72 h
DERL-7 (IL-2 2.5 ng/mL) [5] = experiment: as above; conditions: 72 h
NK-92 (IL-2 2.5 ng/mL) [6] = experiment: as above; conditions: 72 h
NK-YS (IL-2 2.5 ng/mL) [7] = experiment: as above; conditions: 72 h
KHYG-1 (IL-2 2.5 ng/mL) [8] = experiment: as above; conditions: 72 h
NKL (IL-2 2.5 ng/mL) [9] = experiment: as above; conditions: 72 h
SNK-6 (IL-2 2.5 ng/mL) [10] = experiment: as above; conditions: 72 h
[11] = tested on: normal primary NK cells, pool 2 (3 donors) (IL-2 2.5 ng/mL); experiment: as above; conditions: 72 h
[12] = tested on: normal primary NK cells, pool 1 (3 donors) (IL-2 2.5 ng/mL); experiment: as above; conditions: 72 h
KAI3 (IL-2 2.5 ng/mL) [13] = experiment: as above; conditions: 72 h
[14] = tested on: normal NK cells expanded with K562-aAPC; experiment: as above; conditions: 72 h; IL-2 2.5 ng/mL
Procedure: (§1)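 Drug sensitivity and resistance testing on K562-aAPC-expanded normal NK cells: 5 concentrations (10-fold steps over a 10,000-fold range), 72 h at 37 °C, viability by CellTiter-Glo normalised to DMSO and benzethonium chloride controls; DSS from the fitted curve.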

[15] = tested on: normal NK cells expanded with K562-aAPC; experiment: percent inhibition of viability; higher = more inhibition; conditions: 72 h, IL-2 2.5 ng/mL
Procedure: as §1

[16] = tested on: normal primary NK cells, pool 1 (3 donors), resting (IL-2 0 ng/mL); experiment: as above; conditions: 72 h
IMC-1 (IL-2 20 ng/mL) [17] = experiment: as above; conditions: 72 h
YT (IL-2 2.5 ng/mL) [18] = experiment: as above; conditions: 72 h
[19] = tested on: normal primary NK cells, pool 3 (3 donors) (IL-2 2.5 ng/mL); experiment: as above; conditions: 72 h
DERL-7 (IL-2 2.5 ng/mL) [20] = experiment: as above; conditions: 72 h
NK-92 (IL-2 2.5 ng/mL) [21] = experiment: as above; conditions: 72 h
NK-YS (IL-2 2.5 ng/mL) [22] = experiment: as above; conditions: 72 h
KHYG-1 (IL-2 2.5 ng/mL) [23] = experiment: as above; conditions: 72 h
NKL (IL-2 2.5 ng/mL) [24] = experiment: as above; conditions: 72 h
SNK-6 (IL-2 2.5 ng/mL) [25] = experiment: as above; conditions: 72 h
[26] = tested on: normal primary NK cells, pool 2 (3 donors) (IL-2 2.5 ng/mL); experiment: as above; conditions: 72 h
[27] = tested on: normal primary NK cells, pool 1 (3 donors) (IL-2 2.5 ng/mL); experiment: as above; conditions: 72 h
KAI3 (IL-2 2.5 ng/mL) [28] = experiment: as above; conditions: 72 h

Clc1ccc(C(c2ccccc2Cl)C(Cl)Cl)cc1 (centres undefined) [Mitotane] (max concentration tested 10000 nM)
drug sensitivity score [1]: 0 | drug sensitivity score (IMC-1 (IL-2 20 ng/mL) [2]): 0 | drug sensitivity score (YT (IL-2 2.5 ng/mL) [3]): 0 | drug sensitivity score [4]: 0 | drug sensitivity score (DERL-7 (IL-2 2.5 ng/mL) [5]): 0 | drug sensitivity score (NK-92 (IL-2 2.5 ng/mL) [6]): 0 | drug sensitivity score (NK-YS (IL-2 2.5 ng/mL) [7]): 0 | drug sensitivity score (KHYG-1 (IL-2 2.5 ng/mL) [8]): 0 | drug sensitivity score (NKL (IL-2 2.5 ng/mL) [9]): 0 | drug sensitivity score (SNK-6 (IL-2 2.5 ng/mL) [10]): 0 | drug sensitivity score [11]: 0 | drug sensitivity score [12]: 0 | drug sensitivity score (KAI3 (IL-2 2.5 ng/mL) [13]): 0 | drug sensitivity score [14]: 0 | percent inhibition of viability ([15]; 1 nM): -3.47% | percent inhibition of viability ([15]; 10 nM): -5.5% | percent inhibition of viability ([15]; 100 nM): -2.42% | percent inhibition of viability ([15]; 1000 nM): -6.05% | percent inhibition of viability ([15]; 10000 nM): -4.65% | percent inhibition of viability ([16]; 1 nM): -7.77% | percent inhibition of viability ([16]; 10 nM): -15.2% | percent inhibition of viability ([16]; 100 nM): 11.9% | percent inhibition of viability ([16]; 1000 nM): -9.1% | percent inhibition of viability ([16]; 10000 nM): 7.07% | percent inhibition of viability (IMC-1 (IL-2 20 ng/mL) [17]; 1 nM): -4% | percent inhibition of viability (IMC-1 (IL-2 20 ng/mL) [17]; 10 nM): -2.56% | percent inhibition of viability (IMC-1 (IL-2 20 ng/mL) [17]; 100 nM): -9% | percent inhibition of viability (IMC-1 (IL-2 20 ng/mL) [17]; 1000 nM): -5.63% | percent inhibition of viability (IMC-1 (IL-2 20 ng/mL) [17]; 10000 nM): -8.85% | percent inhibition of viability (YT (IL-2 2.5 ng/mL) [18]; 1 nM): -5.71% | percent inhibition of viability (YT (IL-2 2.5 ng/mL) [18]; 10 nM): -7.2% | percent inhibition of viability (YT (IL-2 2.5 ng/mL) [18]; 100 nM): -6.08% | percent inhibition of viability (YT (IL-2 2.5 ng/mL) [18]; 1000 nM): -5.64% | percent inhibition of viability (YT (IL-2 2.5 ng/mL) [18]; 10000 nM): -3.1% | percent inhibition of viability ([19]; 1 nM): -8.66% | percent inhibition of viability ([19]; 10 nM): -9.61% | percent inhibition of viability ([19]; 100 nM): -7% | percent inhibition of viability ([19]; 1000 nM): -8.07% | percent inhibition of viability ([19]; 10000 nM): 0.73% | percent inhibition of viability (DERL-7 (IL-2 2.5 ng/mL) [20]; 1 nM): -3.98% | percent inhibition of viability (DERL-7 (IL-2 2.5 ng/mL) [20]; 10 nM): -2.6% | percent inhibition of viability (DERL-7 (IL-2 2.5 ng/mL) [20]; 100 nM): -1.88% | percent inhibition of viability (DERL-7 (IL-2 2.5 ng/mL) [20]; 1000 nM): -5.27% | percent inhibition of viability (DERL-7 (IL-2 2.5 ng/mL) [20]; 10000 nM): 1.52% | percent inhibition of viability (NK-92 (IL-2 2.5 ng/mL) [21]; 1 nM): -11.9% | percent inhibition of viability (NK-92 (IL-2 2.5 ng/mL) [21]; 10 nM): -11.6% | percent inhibition of viability (NK-92 (IL-2 2.5 ng/mL) [21]; 100 nM): -10.9% | percent inhibition of viability (NK-92 (IL-2 2.5 ng/mL) [21]; 1000 nM): -14.2% | percent inhibition of viability (NK-92 (IL-2 2.5 ng/mL) [21]; 10000 nM): -13.7% | percent inhibition of viability (NK-YS (IL-2 2.5 ng/mL) [22]; 1 nM): -3.11% | percent inhibition of viability (NK-YS (IL-2 2.5 ng/mL) [22]; 10 nM): -4.91% | percent inhibition of viability (NK-YS (IL-2 2.5 ng/mL) [22]; 100 nM): -8.11% | percent inhibition of viability (NK-YS (IL-2 2.5 ng/mL) [22]; 1000 nM): -1.41% | percent inhibition of viability (NK-YS (IL-2 2.5 ng/mL) [22]; 10000 nM): -4.03% | percent inhibition of viability (KHYG-1 (IL-2 2.5 ng/mL) [23]; 1 nM): -5.54% | percent inhibition of viability (KHYG-1 (IL-2 2.5 ng/mL) [23]; 10 nM): -6.16% | percent inhibition of viability (KHYG-1 (IL-2 2.5 ng/mL) [23]; 100 nM): -6.75% | percent inhibition of viability (KHYG-1 (IL-2 2.5 ng/mL) [23]; 1000 nM): -7.76% | percent inhibition of viability (KHYG-1 (IL-2 2.5 ng/mL) [23]; 10000 nM): -6.11% | percent inhibition of viability (NKL (IL-2 2.5 ng/mL) [24]; 1 nM): -23.5% | percent inhibition of viability (NKL (IL-2 2.5 ng/mL) [24]; 10 nM): -31.7% | percent inhibition of viability (NKL (IL-2 2.5 ng/mL) [24]; 100 nM): -25.8% | percent inhibition of viability (NKL (IL-2 2.5 ng/mL) [24]; 1000 nM): -21.9% | percent inhibition of viability (NKL (IL-2 2.5 ng/mL) [24]; 10000 nM): -16.6% | percent inhibition of viability (SNK-6 (IL-2 2.5 ng/mL) [25]; 1 nM): 11.9% | percent inhibition of viability (SNK-6 (IL-2 2.5 ng/mL) [25]; 10 nM): 12.4% | percent inhibition of viability (SNK-6 (IL-2 2.5 ng/mL) [25]; 100 nM): -5.92% | percent inhibition of viability (SNK-6 (IL-2 2.5 ng/mL) [25]; 1000 nM): -1.09% | percent inhibition of viability (SNK-6 (IL-2 2.5 ng/mL) [25]; 10000 nM): -8.81% | percent inhibition of viability ([26]; 1 nM): -6.28% | percent inhibition of viability ([26]; 10 nM): -4.83% | percent inhibition of viability ([26]; 100 nM): -5.23% | percent inhibition of viability ([26]; 1000 nM): -1.37% | percent inhibition of viability ([26]; 10000 nM): -4.6% | percent inhibition of viability ([27]; 1 nM): -4.65% | percent inhibition of viability ([27]; 10 nM): -4.88% | percent inhibition of viability ([27]; 100 nM): 5.61% | percent inhibition of viability ([27]; 1000 nM): -1.23% | percent inhibition of viability ([27]; 10000 nM): -0.57% | percent inhibition of viability (KAI3 (IL-2 2.5 ng/mL) [28]; 1 nM): -6.14% | percent inhibition of viability (KAI3 (IL-2 2.5 ng/mL) [28]; 10 nM): -3.83% | percent inhibition of viability (KAI3 (IL-2 2.5 ng/mL) [28]; 100 nM): -3.7% | percent inhibition of viability (KAI3 (IL-2 2.5 ng/mL) [28]; 1000 nM): -6.65% | percent inhibition of viability (KAI3 (IL-2 2.5 ng/mL) [28]; 10000 nM): -4.73%
